In patent publication US8853175B2, “Phenethylsulfone isoindoline derivatives and their use” (Celgene Corporation, priority 2010, dated 2014):

Key:
[1] = system: PDE 4; assay: PDE 4 inhibition assay; assay type: biochemical, human; details: crude PDE 4 enzyme from U937 cells; 1 μM cAMP; read-out: IC50 for inhibiting PDE 4
Procedure: PDE 4 inhibition may be assays using any methods conventionally known in the art. For example, using a modification of the method of Hill and Mitchell [Hill and Mitchell, Faseb J., 8, A217 (1994)], U937 cells (a human promonocytic cell line) are grown to 1×10^6 cells/mL and collected by centrifugation. A cell pellet of 1×10^9 cells is washed in phosphate buffered saline and then frozen at −70° C. for later purification or immediately lysed in cold homogenization buffer (20 mM Tris-HCl, pH 7.1, 3 mM 2-mercaptoethanol, 1 mM magnesium chloride, 0.1 mM ethylene glycol-bis-(β-aminoethyl ether)-N,N,N^1,N^1-tetraacetic acid (EGTA), 1 μM phenylmethylsulfonyl fluoride (PMSF), and 1 μg/mL leupeptin). Cells are homogenized with 20 strokes in a Dounce homogenizer and the supernatant containing the cytosolic fraction are obtained by centrifugation. The supernatant is then loaded onto a Sephacryl S-200 column equilibrated in homogenization buffer. […]
The phosphodiesterase assay is carried out based on the procedure described by Hill and Mitchell. […] Each data point is carried out in duplicate and activity is expressed as percentage of control. The IC50s of the compounds are then determined from dose response curves of a minimum of three independent experiments.

[2] = system: TNFα; assay: TNFα inhibition assay in PBMC (LPS-stimulated); assay type: cell-based; details: Homo sapiens; PBMC stimulated with LPS 1 ng/ml; TNFα by ELISA; read-out: IC50 for inhibiting TNFα
Procedure: Peripheral blood mononuclear cells (PBMC) from normal donors are obtained by Ficoll Hypaque (Pharmacia, Piscataway, N.J., USA) density centrifugation. Cells are cultured in RPMI 1640 (Life Technologies, Grand Island, N.Y., USA) supplemented with 10% AB+human serum (Gemini Bio-products, Woodland, Calif., USA), 2 mM L-glutamine, 100 U/ml penicillin, and 100 μg/ml streptomycin (Life Technologies).
PBMC (2×10^5 cells) are plated in 96-well flat-bottom Costar tissue culture plates (Corning, N.Y., USA) in triplicate. Cells are stimulated with LPS (from Salmonella abortus equi, Sigma cat. no. L-1887, St. Louis, Mo. USA) at 1 ng/ml final in the absence or presence of compounds. Compounds provided herein are dissolved in DMSO (Sigma) and further dilutions are done in culture medium immediately before use. The final DMSO concentration in all assays can be about 0.25%. Compounds are added to cells 1 hour before LTS stimulation. Cells are then incubated for 18-20 hours at 37° C. in 5% CO2, and supernatants are then collected, diluted with culture medium and assayed for TNFα levels by ELISA (Endogen, Boston, Mass. USA). IC50s are calculated using non-linear regression, sigmoidal dose-response, constraining the top to 100% and bottom to 0%, allowing variable slope (GraphPad Prism v3.02).

IC50 [1]: ~10 nM | IC50 [2]: ~200 nM
SMILES: CCOc1cc([C@@H](CS(C)(=O)=O)N2C(=O)c3cccc(NC(=O)CO)c3C2=O)ccc1OC [(1S)—N-{2-[1-(3-Ethoxy-4-Methoxy-Phenyl)-2-Methanesulfonyl-Ethyl]-1,3-Dioxo-2,3-Dihydro-1H-Isoindol-4-yl}-2-Hydroxy-Acetamide]
